Source: US11382985B2, “Anti-tumour immune responses to modified self-epitopes” (Scancell Limited, priority 2015, dated 2022)
Square brackets hold non-standard residues; d marks the D form. Ends that are not written are not given here. Cit = NC(=O)NCCC[C@H](N)C(=O)O

Tests used:
splenocytes [1] = assay: Screening of citrullinated Enolase peptide pools, ex vivo IFNγ Elispot, HHD/DR1 mice; assay type: in vivo, transgenic HHD/DR1 mouse; details: single immunisation with pool of 4-6 human citrullinated peptides, 20 μg each, CpG/MPLA, day 14, label = peptide used for restimulation
Experimental: (§1) C57BL/6 mice (Charles River, UK), HLA-DR4 mice (Taconic, USA), HHDII/DR1 mice (Pasteur institute, France) and the HHD/HLA-DP4 transgenic strain of mouse as described in patent WO2013/017545 A1 (EMMA repository, France) were used, aged between 8 and 12 weeks, and cared for by the staff at Nottingham Trent University. All work was carried out under a Home Office project licence. Peptides were dissolved in PBS to 1 mg/ml and then emulsified (a series of dilutions) with different adjuvants: CpG and MPLA 6 μg/mouse of each (Invivogen, UK), Incomplete Freund's 50 μl/mouse (Sigma, UK), poly I:C 10 μg/mouse (Invivogen, UK), Imiquimod 25 μg/mouse (Invivogen, UK) and GMCSF 10 μg/mouse (Peprotech, UK). Peptides (25 μg/mouse) were injected subcutaneously at the base of the tail. DNA (1 μg/mouse) was coated onto 1.0 μm gold particles (BioRad, Hemel Hempstead, UK) using the manufacturer's instructions and administered intradermally by genegun (BioRad). Homspera (10 nM/mouse) (PeptideSynthetics, UK) was injected intradermally with genegun immunisation. Mice were immunized at either day 0 for peptide immunisation or days, 0 and 7 for genegun immunisation, unless otherwise stated. Spleens were removed for analysis at day 14 for peptide and day 20 for peptide or genegun immunisation unless stated otherwise.
(§2) Elispot assays were performed using murine IFNγ, IL-17 and IL-10 capture and detection reagents according to the manufacturer's instructions (Mabtech, Sweden). In brief, anti-IFNγ, IL-17 and IL-10 antibodies were coated onto wells of 96-well Immobilin-P plate. Synthetic peptides (at a variety of concentrations) and 5×10^5 per well splenocytes were added to the wells of the plate in triplicate. Tumour target cells were added where relevant at 5×10^4/well in triplicate and plates incubated for 40 hrs at 37° C. After incubation, captured IFN and IL-10 were detected by biotinylated anti-IFNγ and IL-10 antibodies and developed with a streptavidin alkaline phosphatase and chromogenic substrate. Spots were analysed and counted using an automated plate reader (Cellular Technologies Ltd).
(§3) Screening was performed to identify potential citrullinated Enolase epitopes in mice. Mice were immunised with pools of 4-6 human citrullinated peptides. […] Each pool was administered as a single immunisation containing 20 μg of each peptide and CpG/MPLA as an adjuvant. After 14 days the mice were culled and the immune responses to each peptide within the immunising pool were assessed by ex vivo Elispot (FIG. 2). In addition, the splenocytes were screened against the murine equivalent sequences. We have previously shown that citrullinated peptides can induce responses in the transgenic DR4 mouse strain. Given that different mouse strains have different MHC repertoires a number of strains were used for screening. Peptide responses were assessed in C57BL/6 mice as well as transgenic strains expressing human DR4 or HHD/DR1 in a C57BL/6 background (see materials and methods).

splenocytes [2] = assay: Screening of citrullinated Enolase peptide pools, ex vivo IFNγ Elispot, C57BL/6 mice; assay type: in vivo, C57BL/6 mouse; details: single immunisation with pool of 4-6 human citrullinated peptides, 20 μg each, CpG/MPLA, day 14, label = peptide used for restimulation
Experimental: as §1, §2, §3

splenocytes [3] = assay: Peptide immunisation and ex vivo Elispot, C57Bl/6 mice; assay type: in vivo, C57Bl/6 mouse; details: C57Bl/6 mice immunised with the human citrullinated peptide
Experimental: as §1, §2

splenocytes [4] = assay: Peptide immunisation and ex vivo Elispot, DR4 mice; assay type: in vivo, HLA-DR4 transgenic mouse; details: for IFNγ response to the human sequence / IFNγ response to the mouse sequence: single immunisation of the human citrullinated peptide; for IFNγ response to 15mer peptide spanning 241-260: label = 15mer used for restimulation
Experimental: as §1, §2

splenocytes [5] = assay: Screening of citrullinated Enolase peptide pools, ex vivo IFNγ Elispot, DR4 mice; assay type: in vivo, transgenic DR4 mouse; details: single immunisation with pool of 4-6 human citrullinated peptides, 20 μg each, CpG/MPLA, day 14, label = peptide used for restimulation
Experimental: C57BL/6 mice (Charles River, UK), HLA-DR4 mice (Taconic, USA), HHDII/DR1 mice (Pasteur institute, France) and the HHD/HLA-DP4 transgenic strain of mouse as described in patent WO2013/017545 A1 (EMMA repository, France) were used, aged between 8 and 12 weeks, and cared for by the staff at Nottingham Trent University. All work was carried out under a Home Office project licence. Peptides were dissolved in PBS to 1 mg/ml and then emulsified (a series of dilutions) with different adjuvants: CpG and MPLA 6 μg/mouse of each (Invivogen, UK), Incomplete Freund's 50 μl/mouse (Sigma, UK), poly I:C 10 μg/mouse (Invivogen, UK), Imiquimod 25 μg/mouse (Invivogen, UK) and GMCSF 10 μg/mouse (Peprotech, UK). […]
Elispot assays were performed using murine IFNγ, IL-17 and IL-10 capture and detection reagents according to the manufacturer's instructions (Mabtech, Sweden). […] After incubation, captured IFN and IL-10 were detected by biotinylated anti-IFNγ and IL-10 antibodies and developed with a streptavidin alkaline phosphatase and chromogenic substrate. Spots were analysed and counted using an automated plate reader (Cellular Technologies Ltd).
Screening was performed to identify potential citrullinated Enolase epitopes in mice. […] After 14 days the mice were culled and the immune responses to each peptide within the immunising pool were assessed by ex vivo Elispot (FIG. 2). […]

splenocytes [6] = assay: Peptide immunisation and ex vivo Elispot, DP4 mice; assay type: in vivo, HHD/HLA-DP4 transgenic mouse
Experimental: as §1, §2

splenocytes [7] = assay: Peptide immunisation and ex vivo Elispot, DR1/HHD mice; assay type: in vivo, HHD/DR1 transgenic mouse; details: single immunisation of the human citrullinated peptide
Experimental: as §1, §2

[8] = DR4 mice immunised with human 241cit

## MSILKIHA-CIT-EIFDSRGNPTV [Enolase 1-20]
Splenocytes [1]
  IFNγ response to peptide compared to media: did not induced a significant response

## EVDLFTSKGLF-CIT-AAVPSGAS [Enolase 21cit]
Splenocytes [2]
  IFNγ response to peptide compared to media: significant response
Splenocytes [3]
  IFNγ response in presence of CD4 blocking antibody: efficiently blocked
  IFNγ response in presence of CD8 blocking antibody: not
  IFNγ response to the citrullinated peptide: strong IFNγ responses
Splenocytes [4]; DR4 mice
  IFNγ response to the human sequence: not
  IFNγ response to the mouse sequence: low level but significant response

## VIGMDVAASEFY-CIT-SGKYDLD (VIGMDVAASEFY[Cit]SGKYDLD) [mouse 241cit]
Splenocytes [5]
  IFNγ response to peptide compared to media: significant response
Splenocytes [4]; DR4 mice immunised with human 241cit, label = restimulating peptide
  IFNγ response in presence of human MHC class II blocking antibody (L243): significantly reduced
Splenocytes [4]; DR4 mice, single dose in CpG/MPLA, sacrificed after 2, 6 or 14 days
  time after immunisation at which IFNγ response is detectable: 2 days
Splenocytes [6]; DP4 mice, three doses of human Enolase 241cit, label = restimulating peptide
  IFNγ response compared to the wild type peptides: increased IFNγ responses
Splenocytes [6]; DP4 transgenic mice immunised with the murine peptide, three doses
  IFNγ responses to citrullinated and wildtype peptide: specific to the citrullinated peptide but not the wildtype

## KGVPLY-CIT-HIADLAGNPEVIL [mouse 126cit]
Splenocytes [2]
  IFNγ response to peptide compared to media: significant response
Splenocytes [1]
  IFNγ response to peptide compared to media: not

## MSILRIHA-CIT-EIFDSRGNPTV [mouse 1cit]
Splenocytes [1]
  IFNγ response to peptide compared to media: did induce a response

## KGVPLY-CIT-HIADLAGNSEVIL [Enolase 126cit]
Splenocytes [2]
  IFNγ response to peptide compared to media: not
Splenocytes [7]
  IFNγ response to the human sequence: not
Splenocytes [1]
  IFNγ response to peptide compared to media: significant response
Splenocytes [4]; DR4 mice
  IFNγ response to the human sequence: low level significant response

## VGDDLTVTNPK-CIT-IAKAVNEK [Enolase 316cit]
Splenocytes [7]
  IFNγ response to the human sequence: moderate response
  IFNγ response to the mouse sequence: not
Splenocytes [1]
  IFNγ response to peptide compared to media: significant response
Splenocytes [4]; DR4 mice
  IFNγ response to the human sequence: moderate response
  IFNγ response to the mouse sequence: not

## EVDLYTAKGLF-CIT-AAVPSGAS [mouse 21cit]
Splenocytes [2]
  IFNγ response to peptide compared to media: not

## FKSPDDPS-CIT-YISPDQLADLY [human 261cit]
Splenocytes [2]
  IFNγ response to peptide compared to media: significant response

## IFDScitGNPTVEVDLF [enolase 11cit]
Splenocytes [3]
  IFN response to the equivalent murine sequence: cross reacted
  IFNγ response in presence of CD4 blocking antibody: abrogated the response
  IFNγ response in presence of CD8 blocking antibody: no effect
  IFNγ response to the citrullinated peptide: IFN responses
  IFNγ response to the wt peptide: minimal reactivity
  IL-10 response to the citrullinated peptide: No IL-10 responses

## VGDDLTVTNPK-CIT-IAKAASEK [mouse 316cit]
Splenocytes [1]
  IFNγ response to peptide compared to media: not

## aa246-260: 15mer peptide spanning the Enolase 241-260 sequence (VAASEFFRSGKYDLD; UniProt P06733 246-260, looked up, fragment)
Splenocytes [4]; [8]
  IFNγ response to 15mer peptide spanning 241-260: no response

## aa241-255: 15mer peptide spanning the Enolase 241-260 sequence (VIGMDVAASEFFRSG; UniProt P06733 241-255, looked up, fragment)
Splenocytes [4]; [8]
  IFNγ response to 15mer peptide spanning 241-260: stimulating specific responses

## FKSPDDPS-CIT-YITPDQLADLY [mouse 261cit]
Splenocytes [2]
  IFNγ response to peptide compared to media: not
